The values that follow come from ChEMBL document CHEMBL1151171, “New biologically active triterpenoid saponins from Scabiosa tschiliensis” (J Nat Prod, 2004).

Calls of active or inactive are those of the source. No cut-off for these calls is given here.

The target of test [1] is T1, Pancreatic triacylglycerol lipase (Homo sapiens) (UniProt P16233).
T1 sequence (whole entry): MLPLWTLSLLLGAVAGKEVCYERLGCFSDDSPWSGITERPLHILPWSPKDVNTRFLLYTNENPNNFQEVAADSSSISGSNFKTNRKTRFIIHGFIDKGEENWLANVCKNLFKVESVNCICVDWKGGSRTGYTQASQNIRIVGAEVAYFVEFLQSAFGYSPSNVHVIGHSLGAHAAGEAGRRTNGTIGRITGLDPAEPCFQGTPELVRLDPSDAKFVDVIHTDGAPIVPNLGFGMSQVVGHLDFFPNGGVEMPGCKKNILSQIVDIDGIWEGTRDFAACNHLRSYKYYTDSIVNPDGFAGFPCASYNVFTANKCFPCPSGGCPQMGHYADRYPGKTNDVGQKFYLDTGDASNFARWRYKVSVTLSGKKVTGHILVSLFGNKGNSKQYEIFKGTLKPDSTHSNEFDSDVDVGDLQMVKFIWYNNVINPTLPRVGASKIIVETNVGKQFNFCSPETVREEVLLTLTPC
The test can be described thus: Inhibition of pancreatic lipase assessed as effect on oleic acid release from triolein at 1 mg/mL relative to control.

Test [2] deals with T1, Pancreatic triacylglycerol lipase (Homo sapiens). The test is described as follows: Inhibition of pancreatic lipase assessed as effect on oleic acid release from triolein at 0.12 mg/mL relative to control.
Test [3] shares this target. The test can be described thus: Inhibition of pancreatic lipase assessed as effect on oleic acid release from triolein relative to control.
Test [4] has the same target. The test can be described thus: Inhibition of pancreatic lipase assessed as effect on oleic acid release from triolein at 0.005 mg/mL relative to control.

Consider `C[C@@H]1O[C@@H](O[C@H]2[C@H](O[C@H]3CC[C@]4(C)[C@H]5CC=C6[C@@H]7CC(C)(C)CC[C@]7(C(=O)O[C@@H]7O[C@H](CO[C@@H]8O[C@H](CO)[C@@H](O)[C@H](O)[C@H]8O)[C@@H](O)[C@H](O)[C@H]7O)CC[C@@]6(C)[C@]5(C)CC[C@H]4C3(C)C)OC[C@@H](O)[C@@H]2O)[C@H](O)[C@H](O[C@@H]2O[C@H](CO)[C@@H](O[C@@H]3O[C@H](CO)[C@@H](O)[C@H](O)[C@H]3O)[C@H](O)[C@H]2O)[C@H]1O`, for which the outcome in test [1] was Active.

`C[C@@H]1O[C@@H](O[C@H]2[C@H](O[C@H]3CC[C@]4(C)[C@H]5CC=C6[C@@H]7CC(C)(C)CC[C@]7(C(=O)O[C@@H]7O[C@H](CO[C@@H]8O[C@H](CO)[C@@H](O)[C@H](O)[C@H]8O)[C@@H](O)[C@H](O)[C@H]7O)CC[C@@]6(C)[C@]5(C)CC[C@H]4C3(C)C)OC[C@@H](O)[C@@H]2O)[C@H](O)[C@H](O[C@@H]2OC[C@@H](O[C@@H]3O[C@H](CO)[C@@H](O)[C@H](O)[C@H]3O)[C@H](O)[C@H]2O)[C@H]1O`: in test [1], the result was Active.

Consider `C[C@@H]1O[C@@H](O[C@H]2[C@H](O[C@H]3CC[C@]4(C)[C@H]5CC=C6[C@@H]7CC(C)(C)CC[C@]7(C(=O)O[C@@H]7O[C@H](CO[C@@H]8O[C@H](CO)[C@@H](O)[C@H](O)[C@H]8O)[C@@H](O)[C@H](O)[C@H]7O)CC[C@@]6(C)[C@]5(C)CC[C@H]4C3(C)C)OC[C@@H](O)[C@@H]2O)[C@H](O)[C@H](O[C@@H]2O[C@H](CO)[C@@H](O)[C@H](O)[C@H]2O)[C@H]1O`, for which, in test [1], the outcome was Active.

Regarding `C[C@@H]1O[C@@H](O[C@H]2[C@H](O[C@H]3CC[C@]4(C)[C@H]5CC=C6[C@@H]7CC(C)(C)CC[C@]7(C(=O)O[C@@H]7O[C@H](CO[C@@H]8O[C@H](CO)[C@@H](O)[C@H](O)[C@H]8O)[C@@H](O)[C@H](O)[C@H]7O)CC[C@@]6(C)[C@]5(C)CC[C@H]4C3(C)C)OC[C@@H](O)[C@@H]2O)[C@H](O)[C@H](O[C@@H]2OC[C@@H](O)[C@H](O)[C@H]2O)[C@H]1O`, the outcome in test [1] was Active.

For `C[C@@H]1O[C@@H](O[C@H]2[C@H](O[C@H]3CC[C@]4(C)[C@H]5CC=C6[C@H]7[C@](C(=O)O[C@@H]8O[C@H](CO[C@@H]9O[C@H](CO)[C@@H](O)[C@H](O)[C@H]9O)[C@@H](O)[C@H](O)[C@H]8O)(CC[C@@H](C)[C@@]7(C)O)CC[C@@]6(C)[C@]5(C)CC[C@H]4C3(C)C)OC[C@H](O)[C@@H]2O)[C@H](O)[C@H](O[C@@H]2O[C@H](CO)[C@@H](O)[C@H](O)[C@H]2O)[C@H]1O`, the outcome in test [1] was Active.

Regarding `C[C@@H]1O[C@@H](O[C@H]2[C@H](O[C@H]3CC[C@]4(C)[C@H]5CC=C6[C@@H]7CC(C)(C)CC[C@]7(C(=O)O[C@@H]7O[C@H](CO[C@@H]8O[C@H](CO)[C@@H](O)[C@H](O)[C@H]8O)[C@@H](O)[C@H](O)[C@H]7O)CC[C@@]6(C)[C@]5(C)CC[C@H]4C3(C)C)OC[C@@H](O)[C@@H]2O)[C@H](O)[C@H](O[C@@H]2OC[C@@H](O[C@@H]3O[C@H](CO)[C@@H](O[C@@H]4OC[C@@H](O)[C@H](O)[C@H]4O)[C@H](O)[C@H]3O)[C@H](O)[C@H]2O)[C@H]1O`, in test [1], the outcome was Active.

As to `C[C@@H]1O[C@@H](O[C@H]2[C@H](O[C@H]3CC[C@]4(C)[C@H]5CC=C6[C@@H]7CC(C)(C)CC[C@]7(C(=O)O)CC[C@@]6(C)[C@]5(C)CC[C@H]4C3(C)C)OC[C@H](O)[C@@H]2O)[C@H](O)[C@H](O[C@@H]2OC[C@@H](O[C@@H]3O[C@H](CO)[C@@H](O)[C@H](O)[C@H]3O)[C@H](O)[C@H]2O)[C@H]1O`, the outcome in test [2] and in test [3] was Active.

With `CCCCCCCCCCC[C@@H](C[C@@H]1OC(=O)[C@H]1CCCCCC)OC(=O)[C@H](CC(C)C)NC=O`, in test [4], the result was Active.
